The source of these data is US7919504B2, “Thiadiazole modulators of PKB” (Amgen Inc., priority 2007, dated 2011).

Counter-ions that a name gives are not always drawn.

T1 sequence (P31749 118-480 limits assumed): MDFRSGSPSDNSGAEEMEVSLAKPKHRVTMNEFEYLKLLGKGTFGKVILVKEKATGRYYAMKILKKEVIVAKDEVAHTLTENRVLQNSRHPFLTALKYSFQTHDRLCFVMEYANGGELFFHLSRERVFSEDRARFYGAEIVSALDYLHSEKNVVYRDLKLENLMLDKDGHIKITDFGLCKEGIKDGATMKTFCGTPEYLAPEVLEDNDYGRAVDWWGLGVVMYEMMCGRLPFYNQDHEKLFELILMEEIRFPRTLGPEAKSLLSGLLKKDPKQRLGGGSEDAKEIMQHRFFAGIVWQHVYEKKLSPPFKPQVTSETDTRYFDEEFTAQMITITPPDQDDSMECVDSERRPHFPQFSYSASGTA

This experiment addresses T1, PKBα (Homo sapiens, UniProt P31749).
T1 construct: the full length PKBα and a kinase domain of PKBα with pleckstrin domain (amino acids 1-117) deleted
The experiment can be described thus: PKB kinase assay (P33-labeled ATP, synthetic peptide substrate, filter plate capture). Conditions: with respect to PKBα. The format is biochemical. An excerpt: The kinase assay for evaluating PKB activity comprises active PKB enzymes, a PKB specific substrate, and P^33-labeled ATP. Two form of PKBα enzymes were used, the full length PKBα and a kinase domain of PKBα with pleckstrin domain (amino acids 1-117) deleted. Both PKB enzymes were obtained from Upstate cell signaling solutions (Cat. #14-276 and 14-341). The PKB substrate used is a synthetic peptide (ARKRERTYSFGHHA (SEQ ID NO: 1)) as described in Obata et al., J. Biol. Chem. 275 (46), 36108-36115 (2000). The phosphorylated substrate was captured by a phosphocellulose membrane filter plate (MILLIPORE) and measured by a Wallac Microbeta liquid scintillation counter (Perkin Elmer). Table 1 provides the IC50 values obtained for each of the examples with respect to PKBα.
Broadly, the IC50 is the concentration needed to halve the response being measured. The low end stands for greater potency, the high end for weaker potency. In turn, `N[C@H](CNc1nnc(-c2ccc3c(c2)CC(=O)N3)s1)Cc1ccc(Cl)cc1` [Example 34, 5-(5-((S)-2-Amino-3-(4-chlorophenyl)propylamino)-1,3,4-thiadiazol-2-yl)indolin-2-one] yielded an IC50 below 0.05 µM.

`N[C@H](CCc1nnc(-c2ccc3cnccc3c2)s1)Cc1ccc(C(F)(F)F)cc1` [Example 35, (2R)-4-(5-(Isoquinolin-6-yl)-1,3,4-thiadiazol-2-yl)-1-(4-(trifluoromethyl)phenyl)butan-2-amine] came in with an IC50 below 0.05 µM.

Consider `N[C@H](CNc1nnc(-c2ccc3cnsc3c2)s1)Cc1ccc(C(F)(F)F)cc1` [Example 42, N-((S)-2-Amino-3-(4-(trifluoromethyl)phenyl)propyl)-5-(benzo[d]isothiazol-6-yl)-1,3,4-thiadiazol-2-amine], for which the IC50 was below 0.05 µM.

`N[C@H](CNc1nnc(-c2ccc3cnc(F)cc3c2)s1)Cc1ccc(C(F)(F)F)cc1` [Example 43, N-((S)-2-Amino-3-(4-(trifluoromethyl)phenyl)propyl)-5-(3-fluoroisoquinolin-6-yl)-1,3,4-thiadiazol-2-amine trifluoroacetate] registered an IC50 below 0.05 µM.

Molecule `N[C@H](CNc1nnc(-c2ccc3cnc(F)cc3c2)s1)Cc1ccc(C(F)(F)F)nc1` [Example 44, N-((S)-2-Amino-3-(6-(trifluoromethyl)pyridin-3-yl)propyl)-5-(3-fluoroisoquinolin-6-yl)-1,3,4-thiadiazol-2-amine trifluoroacetate] had an IC50 below 0.05 µM.

`N[C@H](CCc1nnc(-c2ccc3cnc(F)cc3c2)s1)Cc1ccc(C(F)(F)F)nc1` [Example 45, (2R)-4-(5-(3-Fluoroisoquinolin-6-yl)-1,3,4-thiadiazol-2-yl)-1-(6-(trifluoromethyl)pyridin-3-yl)butan-2-amine] had an IC50 below 0.05 µM.

As to `N[C@H](CCc1nnc(-c2ccc3[nH]ncc3c2)s1)Cc1ccc(C(F)(F)F)nc1` [Example 46, (2R)-4-(5-(1H-Indazol-5-yl)-1,3,4-thiadiazol-2-yl)-1-(6-(trifluoromethyl)pyridin-3-yl)butan-2-amine], the IC50 was below 0.05 µM.

`N[C@H](CCc1nnc(-c2ccc3c(c2)CC(=O)N3)s1)Cc1ccc(C(F)(F)F)nc1` [Example 47, 5-(5-((R)-3-Amino-4-(6-(trifluoromethyl)pyridin-3-yl)butyl)-1,3,4-thiadiazol-2-yl)indolin-2-one trifluoroacetate] showed an IC50 of 0.05 to 1 µM.

In turn, `N[C@H](CCc1nnc(-c2ccc3cnc(F)cc3c2)s1)Cc1ccc(C(F)(F)F)cc1` [Example 48, (2R)-4-(5-(3-Fluoroisoquinolin-6-yl)-1,3,4-thiadiazol-2-yl)-1-(4-(trifluoromethyl)phenyl)butan-2-amine] returned a 50% inhibitory concentration (IC50) below 0.05 µM.

`N[C@H](CCc1nnc(-c2ccc3[nH]c(=O)oc3c2)s1)Cc1ccc(C(F)(F)F)cc1` [Example 49, 6-(5-((R)-3-Amino-4-(4-(trifluoromethyl)phenyl)butyl)-1,3,4-thiadiazol-2-yl)benzo[d]oxazol-2(3H)-one] returned an IC50 below 0.05 µM.

`N[C@H](CNc1nnc(-c2ccc3[nH]c(=O)oc3c2)s1)Cc1ccc(Cl)cc1` [Example 50, 6-(5-((S)-2-Amino-3-(4-chlorophenyl)propylamino)-1,3,4-thiadiazol-2-yl)benzo[d]oxazol-2(3H)-one] registered an IC50 below 0.05 µM.

Regarding `N[C@H](CNc1nnc(-c2ccc3c(c2)CC(=O)N3)s1)[C@@H](O)c1ccc(C(F)(F)F)cc1` [Example 51, 5-(5-((2R,3S)-2-Amino-3-hydroxy-3-(4-(trifluoromethyl)phenyl)propylamino)-1,3,4-thiadiazol-2-yl)indolin-2-one trifluoroacetate], the IC50 was below 0.05 µM.
